Experimental data as given in patent US20230263710A1, “ORAL CARE AGENT” (OSAKA UNIVERSITY, priority 2020, published 2023).
Where two headings read alike, the source gives them in different places.

Assay: Lewis acidity measuring method (1): reaction rate constant of reaction between CoTPP and oxygen in the presence of a Lewis acid
Format: physicochemical

Compound	kcat (reaction rate constant of reaction between CoTPP and oxygen in the presence of a Lewis acid) [M^−2 s^−1]	kcat (reaction rate constant of reaction between CoTPP and oxygen in the presence of a Lewis acid) (acetonitrile, saturated O2, room temperature) [M^−2 s^−1]
benzethonium chloride	0.24	
CCCC[N+](CCCC)(CCCC)CCCC.F[P-](F)(F)(F)(F)F [tetrabutylammonium hexafluorophosphate]	>0.1	
benzalkonium chloride		0.18
